Experimental data taken from patent US20250049679A1, “FORMULATIONS OF ERIODICTYOL” (DEBUT BIOTECHNOLOGY, INC., priority 2023, published 2025).
Entries after “also recorded” stand apart in the source; their conditions may differ.

How the values were obtained:
[1] = test system: PPFIA4 (PTPRF interacting protein alpha 4); test: Gene modulation; assay type: cell-based
From the text: (§1) Table 9, provided below, incorporates the gene modulation data for formulations comprising eriodictyol.

IL23A (Interleukin 23) = test: Gene modulation; assay type: cell-based
From the text: as §1

FST (follistatin) = test: Gene modulation; assay type: cell-based
From the text: as §1

IL24 (Interleukin 24) = test: Gene modulation; assay type: cell-based
From the text: as §1

[2] = test system: MMP10 (matrix metallopeptidase 10); test: Gene modulation; assay type: cell-based
From the text: as §1

FN1 (fibronectin 1) = test: Gene modulation; assay type: cell-based
From the text: as §1

[3] = test system: ALDH1A3 (aldehyde dehydrogenase 1 family member A3); test: Gene modulation; assay type: cell-based
From the text: as §1

[4] = test system: MMP3 (Matrix Metallopeptidase 3); test: Gene modulation; assay type: cell-based
From the text: as §1

[5] = test system: ATP12A (ATPase H+/K+ transporting non-gastric alpha2 subunit); test: Gene modulation; assay type: cell-based
From the text: as §1

[6] = test system: MKI67 (marker of proliferation Ki-67); test: Gene modulation; assay type: cell-based
From the text: as §1

[7] = test system: MMP9 (Matrix Metallopeptidase 9); test: Gene modulation; assay type: cell-based
From the text: as §1

[8] = test system: TOP2A (DNA topoisomerase II alpha); test: Gene modulation; assay type: cell-based
From the text: as §1

IL6 (Interleukin 6) = test: Gene modulation; assay type: cell-based
From the text: as §1

[9] = test system: KCTD4 (potassium channel tetramerization domain containing 4); test: Gene modulation; assay type: cell-based
From the text: as §1

[10] = test system: SLC13A5 (Solute carrier family 13 member 5); test: Gene modulation; assay type: cell-based
From the text: as §1

[11] = test system: TFPI2 (tissue factor pathway inhibitor 2); test: Gene modulation; assay type: cell-based
From the text: as §1

[12] = test system: MMP1 (matrix metallopeptidase 1); test: Gene modulation; assay type: cell-based
From the text: as §1

THBS1 (thrombospondin 1) = test: Gene modulation; assay type: cell-based
From the text: as §1

[13] = test system: TNF (Tumor Necrosis Factor); test: Gene modulation; assay type: cell-based
From the text: as §1

TRPV1 receptors = TRPV1 receptors (Homo sapiens, UniProt Q8NER1); details: acting on TRPV1 receptors; Deng et al. 2020; cited from earlier work
Sequence of TRPV1 receptors (Q8NER1 whole entry): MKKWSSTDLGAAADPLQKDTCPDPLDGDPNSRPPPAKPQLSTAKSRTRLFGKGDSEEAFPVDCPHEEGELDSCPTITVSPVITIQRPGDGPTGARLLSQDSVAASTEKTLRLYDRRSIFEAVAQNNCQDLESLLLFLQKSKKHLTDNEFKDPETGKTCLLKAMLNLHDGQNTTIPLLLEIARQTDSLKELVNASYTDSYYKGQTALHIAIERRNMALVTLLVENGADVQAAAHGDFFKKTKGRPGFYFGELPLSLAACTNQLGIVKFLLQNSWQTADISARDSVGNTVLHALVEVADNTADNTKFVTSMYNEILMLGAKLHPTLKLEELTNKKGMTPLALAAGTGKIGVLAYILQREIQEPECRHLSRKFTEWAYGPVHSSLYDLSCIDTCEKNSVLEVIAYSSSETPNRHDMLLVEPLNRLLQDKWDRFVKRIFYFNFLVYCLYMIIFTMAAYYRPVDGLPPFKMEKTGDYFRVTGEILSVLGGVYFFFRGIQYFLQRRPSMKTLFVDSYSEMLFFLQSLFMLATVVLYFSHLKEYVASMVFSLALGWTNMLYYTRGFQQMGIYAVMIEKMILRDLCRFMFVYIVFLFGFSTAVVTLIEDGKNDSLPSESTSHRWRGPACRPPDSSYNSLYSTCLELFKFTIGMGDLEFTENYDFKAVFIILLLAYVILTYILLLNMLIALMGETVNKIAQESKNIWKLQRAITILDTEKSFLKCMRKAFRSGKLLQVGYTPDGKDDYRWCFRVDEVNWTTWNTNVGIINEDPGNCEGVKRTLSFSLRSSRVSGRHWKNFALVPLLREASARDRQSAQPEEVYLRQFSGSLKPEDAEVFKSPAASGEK

[14] = Glycation inhibition assay; assay type: biochemical; details: for % Enzyme Inhibition: glycation
Description: The assay was conducted to evaluate the glycation inhibition activity of compositions comprising eriodictyol. Nonenzymatic glycation can occur when glucose reacts with proteins, forming a Schiff base intermediate that subsequently undergoes Amadori rearrangement to form glycosylated proteins, when they react with skin proteins to form Advanced Glycation End products (AGE). AGE formation can result in loss of skin elasticity and impaired cellular function. The glycation inhibition ability of a compound is measured by change in fluorescence at excitation/emission of 360 nm/420 nm relative to solvent control.

[15] = target: T1, human neutrophil elastase (Homo sapiens, UniProt P08246); test: Elastase enzyme inhibition; assay type: biochemical
T1 sequence (P08246 30-267): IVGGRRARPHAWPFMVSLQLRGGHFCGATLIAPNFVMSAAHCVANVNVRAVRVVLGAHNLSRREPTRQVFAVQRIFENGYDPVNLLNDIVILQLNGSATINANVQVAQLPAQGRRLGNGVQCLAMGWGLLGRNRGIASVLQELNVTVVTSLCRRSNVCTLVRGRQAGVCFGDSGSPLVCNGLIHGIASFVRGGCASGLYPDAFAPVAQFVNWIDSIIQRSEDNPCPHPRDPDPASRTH
Description: The assay was conducted to evaluate the elastase enzyme inhibition activity of compositions comprising eriodictyol. Neutrophil infiltration and neutrophil elastase are both increased in the skin in response to UV stress. […] Therefore, inhibition of this enzyme, particularly in combination with antioxidant activity, is effective in delaying wrinkle development and aiding in maintaining skin integrity. This assay is measures release of 4-nitroaniline from an Me-Suc-[…] by human neutrophil elastase and can be quantified at 405 nm by comparing to solvent control.

[16] = Stability of eriodictyol in dimethyl isosorbide; assay type: physicochemical
From the text: Thus, the compositions of the invention will also be stable for storage for at least 2 years under ambient conditions.

Nrf2/HO-1 pathway = details: mice, acting on the Nrf2/HO-1 pathway; Li et al. 2022; cited from earlier work
macrophage cells = details: cited from earlier work
[17] = ABTS antioxidant assay (aqueous medium); assay type: biochemical; details: for % Radical Inhibition: ABTS
From the text: ABTS+ solution is generated as a free radical and used to measure relative ability of a compound to scavenge free radicals. Reduction of the absorbance at 734 nm was standardized to solvent control as an indication of ABTS+ scavenging.

[18] = DPPH antioxidant activity assay (organic medium); assay type: biochemical; details: for % Radical Inhibition: DPPH
From the text: The 2,2-diphenyl-1-picrylhydrazyl (DPPH) antioxidant assay is designed to evaluate the antioxidant activity of compositions comprising eriodictyol in an organic medium. […] In the presence of an antioxidant DPPH is reduced, resulting in the formation of a colorless solution. Reduction of absorbance at 517 nm is standardized to solvent control as an indication of DPPH scavenging.

melanoma cells = details: cited from earlier work
ICR mice = details: mouse skin; Park et al. 2013; cited from earlier work
[19] = Solubility of eriodictyol in solvents; assay type: physicochemical
Keratinocytes = details: skin; cited from earlier work
tyrosinase = tyrosinase (Mus musculus, UniProt P11344); details: cited from earlier work
Sequence of tyrosinase (P11344 19-533): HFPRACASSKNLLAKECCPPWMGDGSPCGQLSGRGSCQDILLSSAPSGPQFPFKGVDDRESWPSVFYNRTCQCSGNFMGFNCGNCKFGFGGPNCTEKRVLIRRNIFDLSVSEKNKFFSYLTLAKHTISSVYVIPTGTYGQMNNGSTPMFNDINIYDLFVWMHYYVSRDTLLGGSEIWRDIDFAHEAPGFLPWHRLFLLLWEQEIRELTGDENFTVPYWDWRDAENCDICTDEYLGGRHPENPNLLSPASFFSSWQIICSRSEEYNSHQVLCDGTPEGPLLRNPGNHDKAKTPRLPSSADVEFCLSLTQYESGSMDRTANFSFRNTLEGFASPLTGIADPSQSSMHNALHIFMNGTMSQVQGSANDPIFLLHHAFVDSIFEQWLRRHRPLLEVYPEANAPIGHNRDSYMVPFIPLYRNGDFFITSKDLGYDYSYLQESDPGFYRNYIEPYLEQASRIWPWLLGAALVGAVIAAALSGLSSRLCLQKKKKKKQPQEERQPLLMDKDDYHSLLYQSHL

Structure (SMILES): O=C1C[C@@H](c2ccc(O)c(O)c2)Oc2cc(O)cc(O)c21 [eriodictyol]
- Treatment (gene expression level) ([1]; PPFIA4): 628.6
- Fold Change ([1]; PPFIA4, treatment vs control): 27.9
- Treatment (gene expression level) (IL23A (Interleukin 23)): 5.9
- Fold Change (IL23A (Interleukin 23); treatment vs control): −6.1
- Treatment (gene expression level) (FST (follistatin)): 96.4
- Fold Change (FST (follistatin); treatment vs control): −9.8
- Treatment (gene expression level) (IL24 (Interleukin 24); IL24): 1.2
- Fold Change (IL24 (Interleukin 24); IL24, treatment vs control): −73.5
- Treatment (gene expression level) ([2]; MMP10): 106.9
- Fold Change ([2]; MMP10, treatment vs control): −24.3
- Treatment (gene expression level) (FN1 (fibronectin 1); FN1): 146.9
- Fold Change (FN1 (fibronectin 1); FN1, treatment vs control): −12.1
- Treatment (gene expression level) ([3]; ALDH1A3): 168.0
- Fold Change ([3]; ALDH1A3, treatment vs control): −9.8
- Treatment (gene expression level) ([4]; MMP3): 8.2
- Fold Change ([4]; MMP3, treatment vs control): −48.5
- Treatment (gene expression level) [5]: 76.4
- Fold Change ([5]; treatment vs control): −11.3
- Treatment (gene expression level) ([6]; MKI67): 78.7
- Fold Change ([6]; MKI67, treatment vs control): −10.6
- Treatment (gene expression level) ([7]; MMP9): 527.6
- Fold Change ([7]; MMP9, treatment vs control): −8.6
- Treatment (gene expression level) [8]: 37.6
- Fold Change ([8]; treatment vs control): −18.4
- Treatment (gene expression level) (IL6 (Interleukin 6); IL6): 1.2
- Fold Change (IL6 (Interleukin 6); IL6, treatment vs control): −19.7
- Treatment (gene expression level) ([9]; KCTD4): 36.4
- Fold Change ([9]; KCTD4, treatment vs control): −14.9
- Treatment (gene expression level) ([10]; SLC13A5): 5.9
- Fold Change ([10]; SLC13A5, treatment vs control): −13.9
- Treatment (gene expression level) ([11]; TFPI2): 34.1
- Fold Change ([11]; TFPI2, treatment vs control): −17.1
- Treatment (gene expression level) ([12]; MMP1): 972.9
- Fold Change ([12]; MMP1, treatment vs control): −11.3
- Treatment (gene expression level) (THBS1 (thrombospondin 1); THBS1): 344.3
- Fold Change (THBS1 (thrombospondin 1); THBS1, treatment vs control): −16.0
- Treatment (gene expression level) [13]: 0.0
- Fold Change ([13]; treatment vs control): −256.0
- Neuroinflammation and hypererythema (TRPV1 receptors): reduces neuroinflammation and relieves hypererythema
- Lowest concentration inhibiting glycation [14]: 0.002 % w/w
- IC50 glycation inhibition ([14]; calculated): 0.0088 % w/w
- % Enzyme Inhibition ([14]; eriodictyol 0.002 % w/w): 38.43%
- % Enzyme Inhibition ([14]; eriodictyol 0.007 % w/w): 86.18%
- % Enzyme Inhibition ([14]; eriodictyol 0.022 % w/w): 90.26%
- Lowest concentration inhibiting elastase enzyme activity [15]: 0.008 % w/w
- IC50 elastase enzyme inhibition ([15]; calculated): 0.107 % w/w
- inhibition at 0.008 % strength ([15]; elastase, eriodictyol 0.008 % w/w): 17.6%
- inhibition at 0.04 % strength ([15]; elastase, eriodictyol 0.04 % w/w): 23.1%
- inhibition at 0.2 % strength ([15]; elastase, eriodictyol 0.2 % w/w): 58.1%
- 30 day % remaining ([16]; 4 C.): 104.66%
- 90 day % remaining ([16]; 4 C.): 97.15%
- 30 day % remaining ([16]; 25 C.): 100.78%
- 90 day % remaining ([16]; 25 C.): 91.72%
- 180 day % remaining ([16]; 25 C.): 90.30%
- 30 day % remaining ([16]; 40 C.): 93.53%
- 90 day % remaining ([16]; 40 C.): 98.06%
- 30 day % remaining ([16]; 50 C.): 95.73%
- Cognitive decline (Nrf2/HO-1 pathway): decreases cognitive decline
- Anti-inflammatory activity: inflammatory markers (macrophage cells): decrease inflammatory markers
- % Radical Inhibition ([17]; eriodictyol 0.00016 % w/w): 11.00%
- % Radical Inhibition ([17]; eriodictyol 0.0008 % w/w): 58.72%
- % Radical Inhibition ([17]; eriodictyol 0.004 % w/w): 92.97%
- IC50 antioxidant activity ([17]; aqueous solvent system, calculated): 0.00062 % w/w
- Lowest concentration demonstrating antioxidant activity ([17]; aqueous systems): 0.00016 % w/w
- % Radical Inhibition ([18]; eriodictyol 0.00007 % w/w): 21.22%
- % Radical Inhibition ([18]; eriodictyol 0.00046 % w/w): 81.45%
- % Radical Inhibition ([18]; eriodictyol 0.00278 % w/w): 81.95%
- IC50 antioxidant activity ([18]; organic solvent system, calculated): 0.0002 % w/w
- Lowest concentration demonstrating antioxidant activity ([18]; organic solvent systems): 0.00007 % w/w
- Melanogenesis (melanoma cells): decreases melanogenesis
- Symptoms of atopic dermatitis (ICR mice): alleviating symptoms of atopic dermatitis
- Solubility (% w/w) ([19]; in Caprylic/Capric Triglyceride): only minimally soluble; also recorded: Not soluble
- Solubility (% w/w) ([19]; in Helianthus Annuus (Sunflower) Seed Oil): insoluble; also recorded: Not soluble
- Solubility (% w/w) ([19]; in Pentylene Glycol): only minimally soluble; also recorded: Not soluble
- Solubility ([19]; in oil): poorly soluble or insoluble
- Solubility ([19]; in water): poorly soluble or insoluble
- Protection from UVA-induced photodamage and apoptosis (Keratinocytes): protecting skin from UVA-induced photodamage and apoptosis
- Tyrosinase inhibition (tyrosinase): inhibiting tyrosinase
